This assay deals with BDF1 mice, P388 leukemia ip, median survival T/C. Put plainly: NCI In Vivo Anticancer Drug Screen. Data for tumor model P388 Leukemia (intraperitoneal) in B6D2F1 (BDF1) mice. The following applies: endpoint: median survival time, higher = longer survival. The gist of the method: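 Read-out is survival of treated animals expressed relative to the vehicle group, as a T/C ratio.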

The mark [1] stands for this setting: dose: 12.5 mg/kg/injection, schedule: Q01DX009 (ip), vehicle: saline.
Where [2] appears, read: dose: 50.0 mg/kg/injection, schedule: Q01DX009 (ip), vehicle: saline.

Where “and” joins values, the source holds several entries; their conditions need not be identical. Identical values can stand only once. Toxic doses and inconclusive results are not listed.

Regarding `COc1cc([C@@H]2c3cc4c(cc3[C@@H](OC3OC5COC(C)OC5C(O)C3O)[C@H]3COC(=O)[C@H]23)OCO4)cc(OC)c1O` (some centres undefined), the T/C is 225 % of control (dose: 7.48 mg/kg/injection, schedule: Q04DX003 (ip), vehicle: other); 533 % of control (dose: 11.8 mg/kg/injection, schedule: Q04DX003 (ip), vehicle: Klucel (hydroxypropylcellulose) (HPC)); 170 % of control (dose: 11.8 mg/kg/injection, schedule: Q04DX003 (ip), vehicle: saline); 287 % of control (dose: 12.0 mg/kg/injection, schedule: Q04DX003 (ip), vehicle: saline); 266 % of control (dose: 12.5 mg/kg/injection, schedule: Q04DX003 (ip), vehicle: other); 535 % of control (dose: 17.8 mg/kg/injection, schedule: Q04DX003 (ip), vehicle: Klucel (hydroxypropylcellulose) (HPC)). For the same compound, the T/C runs as follows: (dose: 17.8 mg/kg/injection, schedule: Q04DX003 (ip), vehicle: saline) 200 % of control; (dose: 18.0 mg/kg/injection, schedule: Q04DX003 (ip), vehicle: Klucel (hydroxypropylcellulose) (HPC)) 476 % of control; (dose: 18.0 mg/kg/injection, schedule: Q04DX003 (ip), vehicle: saline) 548 % of control; (dose: 22.08 mg/kg/injection, schedule: Q04DX003 (ip), vehicle: other) 490 % of control; (dose: 27.0 mg/kg/injection, schedule: Q04DX003 (ip), vehicle: Klucel (hydroxypropylcellulose) (HPC)) 535 % of control; (dose: 27.0 mg/kg/injection, schedule: Q04DX003 (ip), vehicle: saline) 550 % of control and 222 % of control. For the same compound, the T/C is 242 % of control (dose: 30.0 mg/kg/injection, schedule: Q04DX003 (ip), vehicle: Klucel (hydroxypropylcellulose) (HPC)); 491 % of control (dose: 34.6 mg/kg/injection, schedule: Q04DX003 (ip), vehicle: other); 550 % of control (dose: 40.0 mg/kg/injection, schedule: Q04DX003 (ip), vehicle: saline); 535 % of control (dose: 40.5 mg/kg/injection, schedule: Q04DX003 (ip), vehicle: Klucel (hydroxypropylcellulose) (HPC)); 300 % of control (dose: 40.5 mg/kg/injection, schedule: Q04DX003 (ip), vehicle: saline); 202 % of control (dose: 60.0 mg/kg/injection, schedule: Q04DX003 (ip), vehicle: saline).
Consider `Cc1ccc2c(c1)C(=O)CC=C(C(=O)O)N2`, for which the T/C by setting is: (dose: 100.0 mg/kg/injection, schedule: Q04DX003 (ip), vehicle: saline) 100 % of control; (dose: 200.0 mg/kg/injection, schedule: Q01DX009 (ip), vehicle: saline with Tween-80) 87 % of control; (dose: 200.0 mg/kg/injection, schedule: Q04DX003 (ip), vehicle: saline) 110 % of control; (dose: 400.0 mg/kg/injection, schedule: Q04DX003 (ip), vehicle: saline) 105 % of control.
Consider `CCOC(=O)c1[nH]c(C)nc1/N=N/N(C)C`, for which the T/C runs as follows: under setting [1], 114 % of control; (dose: 25.0 mg/kg/injection, schedule: Q01DX009 (ip), vehicle: saline) 103 % of control and 121 % of control; under setting [2], 111 % of control; (dose: 200.0 mg/kg/injection, schedule: Q01DX009 (ip), vehicle: saline) 154 % of control and 180 % of control.
`O=P(N1CC1)(N1CC1)N1CC2CCC(CC2)C1`: the T/C (dose: 25.0 mg/kg/injection, schedule: Q04DX003 (ip), vehicle: saline) was 163 % of control and the T/C (dose: 37.5 mg/kg/injection, schedule: Q04DX003 (ip), vehicle: saline) is 236 % of control.
On to `O=C(Nc1ccccc1)Nc1ccc([N+](=O)[O-])cc1`, for which the T/C (dose: 100.0 mg/kg/injection, schedule: Q04DX003 (ip), vehicle: Klucel (hydroxypropylcellulose) (HPC)) was 105 % of control; the T/C (dose: 200.0 mg/kg/injection, schedule: Q04DX003 (ip), vehicle: Klucel (hydroxypropylcellulose) (HPC)) was 110 % of control; the T/C (dose: 400.0 mg/kg/injection, schedule: Q04DX003 (ip), vehicle: Klucel (hydroxypropylcellulose) (HPC)) was 105 % of control.
With `COC(OC)c1cc(=O)[nH]c(=S)[nH]1`, the T/C by setting is: (dose: 100.0 mg/kg/injection, schedule: Q01DX001 (ip), vehicle: Klucel (hydroxypropylcellulose) (HPC)) 100 % of control; (dose: 200.0 mg/kg/injection, schedule: Q01DX001 (ip), vehicle: Klucel (hydroxypropylcellulose) (HPC)) 109 % of control; (dose: 400.0 mg/kg/injection, schedule: Q01DX001 (ip), vehicle: Klucel (hydroxypropylcellulose) (HPC)) 90 % of control.
Regarding `CN(N=O)C(=O)NC(N)=O`, the T/C by setting is: (dose: 1.5 mg/kg/injection, schedule: Q01DX009 (ip), vehicle: saline) 99 % of control; (dose: 2.3 mg/kg/injection, schedule: Q01DX009 (ip), vehicle: saline) 115 % of control; (dose: 5.4 mg/kg/injection, schedule: Q01DX009 (ip), vehicle: saline) 152 % of control; (dose: 11.0 mg/kg/injection, schedule: Q01DX009 (ip), vehicle: Klucel (hydroxypropylcellulose) (HPC)) 161 % of control; (dose: 12.0 mg/kg/injection, schedule: Q04DX003 (ip), vehicle: Klucel (hydroxypropylcellulose) (HPC)) 118 % of control; (dose: 12.5 mg/kg/injection, schedule: Q01DX009 (ip), vehicle: Klucel (hydroxypropylcellulose) (HPC)) 155 % of control. The T/C under setting [1] is 165 % of control and 174 % of control; the T/C (dose: 16.0 mg/kg/injection, schedule: Q01DX009 (ip), vehicle: Klucel (hydroxypropylcellulose) (HPC)) is 186 % of control; the T/C (dose: 16.5 mg/kg/injection, schedule: Q01DX009 (ip), vehicle: Klucel (hydroxypropylcellulose) (HPC)) was 250 % of control and 161 % of control; the T/C (dose: 18.0 mg/kg/injection, schedule: Q01DX009 (ip), vehicle: saline) was 170 % of control; the T/C (dose: 22.0 mg/kg/injection, schedule: Q04DX003 (ip), vehicle: Klucel (hydroxypropylcellulose) (HPC)) is 122 % of control; the T/C (dose: 25.0 mg/kg/injection, schedule: Q01DX009 (ip), vehicle: Klucel (hydroxypropylcellulose) (HPC)) is 159 % of control and 207 % of control. The T/C is 100 % of control and 105 % of control (dose: 37.5 mg/kg/injection, schedule: Q01DX009 (ip), vehicle: Klucel (hydroxypropylcellulose) (HPC)); 105 % of control under setting [2]; 200 % of control (dose: 50.0 mg/kg/injection, schedule: Q04DX003 (ip), vehicle: Klucel (hydroxypropylcellulose) (HPC)); 122 % of control (dose: 75.0 mg/kg/injection, schedule: Q04DX003 (ip), vehicle: Klucel (hydroxypropylcellulose) (HPC)).
As for `O=C(NC(Cc1ccccc1)C(=O)Oc1ccc(Cl)cc1)OCc1ccccc1` (centres undefined), the T/C was 101 % of control (dose: 100.0 mg/kg/injection, schedule: Q04DX002 (ip), vehicle: saline with Tween-80); 94 % of control (dose: 200.0 mg/kg/injection, schedule: Q04DX002 (ip), vehicle: saline with Tween-80); 100 % of control and 91 % of control (dose: 400.0 mg/kg/injection, schedule: Q04DX002 (ip), vehicle: saline with Tween-80).
With `O=[N+]([O-])c1ccc(NCc2ccccc2)c2c1no[n+]2[O-]`, the T/C (dose: 35.0 mg/kg/injection, schedule: Q01DX009 (ip), vehicle: saline with Tween-80) is 92 % of control; the T/C (dose: 70.0 mg/kg/injection, schedule: Q01DX009 (ip), vehicle: saline with Tween-80) was 91 % of control; the T/C (dose: 140.0 mg/kg/injection, schedule: Q01DX009 (ip), vehicle: saline with Tween-80) is 92 % of control.
`COc1ccc(N=NNc2ccc(OC)cc2)cc1`: the T/C reads like this: (dose: 25.0 mg/kg/injection, schedule: Q01DX009 (ip), vehicle: saline with Tween-80) 154 % of control; (dose: 37.5 mg/kg/injection, schedule: Q01DX009 (ip), vehicle: saline with Tween-80) 155 % of control and 166 % of control.
With `CC1=CC(C(O)C(C)C)C(C)(Cc2ccc(C)cn2)NC1c1ccccc1` (centres undefined), the T/C (dose: 6.25 mg/kg/injection, schedule: Q04DX003 (ip), vehicle: saline with Tween-80) was 102 % of control; the T/C (dose: 12.5 mg/kg/injection, schedule: Q04DX003 (ip), vehicle: saline with Tween-80) is 102 % of control; the T/C (dose: 25.0 mg/kg/injection, schedule: Q04DX003 (ip), vehicle: saline with Tween-80) was 109 % of control.
Take `CC[N+](CC)(CC)CCC[N+](CC)(CC)CC`: the T/C (dose: 50.0 mg/kg/injection, schedule: Q01DX009 (ip), vehicle: water) is 89 % of control; the T/C (dose: 100.0 mg/kg/injection, schedule: Q04DX003 (ip), vehicle: water) was 109 % of control; the T/C (dose: 200.0 mg/kg/injection, schedule: Q04DX003 (ip), vehicle: water) is 90 % of control.

The values above are taken from PubChem BioAssay AID328 (DTP/NCI, 2004).
